Where a name gives a salt, the structure may show the parent alone.
Experiments:
Type in all cases: cell-based
[1] = system: pERK (ERK phosphorylation); experiment: Western blot analysis of pERK levels in SN12C cells treated with inhibitors/compounds; conditions: for pERK levels in shY/T cells with increasing concentrations: HCl 1 h 0-12 mM, BAPTA 3 h 0-13 μM, Baf 3 h 0-0.5 μM; for pERK levels in Ctrl cells: CaCl2 2 hours 0, 0.5, 1, 2 mM (FIG. 7K), bicarbonate (FIG. 8K); for pERK levels in shY/T cells: western blot
Procedure: (§1) Cells were grown for 24 hours in serum-free medium in the presence of various inhibitors unless indicated otherwise. After a brief wash with cold PBS, cells were lysed in urea buffer (9.5 M urea, 2% 3-[(3-cholamidopropyl)dimethylammonio]-1-propanesulfonate (CHAPS)), adjusted to similar concentrations, mixed with 6× sodium dodecyl sulfate (SDS) loading dye, heated at 95° C. for 10 minutes, and subjected to SDS-polyacrylamide gel electrophoresis and semi-dry transferring to polyvinylidene fluoride (PVDF) membranes. For analysis of oxidative phosphorylation (OXPHOS) complexes, 2×10^7 Ctrl and shY/T cells were harvested and either saved as whole cell extract (WCE) or processed using the Mitochondria Isolation Kit for cultured cells according to the manufacturer's instructions (Thermo Fisher Scientific). The WCE and mitochondrial-enriched fraction were resuspended in radioimmunoprecipitation assay (RIPA) buffer for western blot analysis.

[2] = system: Ctrl and shY/T SN12C cells; experiment: Nutrient deprivation experiments, percent change in RFP fluorescence (proliferation and survival); conditions: 3 days; for proliferation under nutrient-replete conditions: Ctrl and shY/T SN12C; for proliferation under nutrient-replete conditions / Glc- and Gln-starvation-induced cell death in shY/T cells: GSH 0.3 mM or EGF 1 μg/ml; for Glc- and Gln-starvation-induced cell death in shY/T cells: shY/T SN12C
Procedure: For SN12C cells, all medium in nutrient deprivation studies contained a base of RPMI salt mix (0.42 mM Ca(NO3)2.4H2O, 0.41 mM MgSO4, 5.4 mM KCl, 23.8 mM NaHCO3, 102.7 mM NaCl, and 5.6 mM Na2HPO4), RPMI 1640 vitamins solution (Millipore Sigma, St. Louis, Mo.), MEM amino acids solution (ThermoFisher Scientific), and MEM non-essential amino acids solution (Sigma). Nutrient replete conditions received 11.1 mM glucose (Millipore Sigma) and 2 mM glutamine (Lonza, Benicia, Calif.) and deprivation conditions lacked or contain reduced amount of their respective nutrient as indicated. For SC4 cells, all medium in nutrient deprivation studies contained a base of DMEM without glucose or glutamine (#D5030, Millipore Sigma) and supplemented with sodium pyruvate and sodium bicarbonate to levels in standard DMEM formulation. For conditions with glucose or glutamine, 5.6 mM glucose (Millipore Sigma) and/or 4 mM glutamine (Lonza) were added. Reduced cellular glutathione (GSH) (Alfa Aesar, Haverhill, Mass.) and epidermal growth factor (EGF) (Millipore Sigma) were used at final concentrations of 0.3 mM and 1 μg/ml, respectively. Percent survival was calculated based on the sequential measurements of red fluorescent protein (RFP) fluorescence (filter range 553-574 nm) at the initiation and end of treatment using the Synergy™ Hybrid Multi-Mode Microplate Reader (BioTek, Winooski, Vt.). A one-way ANOVA with Sidak's multiple comparison test was used to calculate significance for all nutrient deprivation experiments.

[3] = system: pAKT (AKT phosphorylation); experiment: Western blot analysis of pAKT levels in SN12C cells; conditions: for pAKT levels in Ctrl cells: Ctrl SN12C cells treated overnight, western blot
Procedure: as §1

shY/T SN12C cells [4] = experiment: Intracellular calcium assay; conditions: shY/T SN12C grown overnight with 0 or 0.3 μM bafilomycin
Procedure: Cells were grown for indicated time in serum-free medium, washed with ice-cold PBS, collected in 100 mM Tris pH 7.5 buffer using cell scraper, and processed using the Calcium Assay Kit (Cayman Chemicals) according to the manufacturer's instructions. The calcium concentrations were normalized to the protein concentrations determined using Bradford Protein Assay (Bio-Rad).

shY/T SN12C cells [5] = experiment: Media pH measurements; conditions: shY/T SN12C grown overnight with 0 or 0.3 μM bafilomycin
Procedure: Cells were plated at the same time with optimized seeding densities that ensure all cell lines to reach 80% confluence at the time of measurement. Medium supernatant was collected and measured using the Thermo Scientific™ Orion™ 3-Star Benchtop pH Meter after calibration.

[6] = system: Ctrl and shY/T SN12C cells; experiment: Lysosome inhibitor treatment of Ctrl and shY/T cells under different nutrient conditions; conditions: bafilomycin 24 hours, chloroquine 3 days, −Glc or −Gln medium
Procedure: Nutrient replete conditions received 11.1 mM glucose (Millipore Sigma) and 2 mM glutamine (Lonza, Benicia, Calif.) and deprivation conditions lacked or contain reduced amount of their respective nutrient as indicated. For SC4 cells, all medium in nutrient deprivation studies contained a base of DMEM without glucose or glutamine (#D5030, Millipore Sigma) and supplemented with sodium pyruvate and sodium bicarbonate to levels in standard DMEM formulation. For conditions with glucose or glutamine, 5.6 mM glucose (Millipore Sigma) and/or 4 mM glutamine (Lonza) were added. […] Percent survival was calculated based on the sequential measurements of red fluorescent protein (RFP) fluorescence (filter range 553-574 nm) at the initiation and end of treatment using the Synergy™ Hybrid Multi-Mode Microplate Reader (BioTek, Winooski, Vt.). […]
Cells were plated at optimized seeding densities to reach 60-70% confluence on the next day, at which point the media were replaced with serum-free medium containing Dox and serially diluted compounds or vehicle control. […] After incubation for indicated time, cell viability was measured using the CellTiter-Glo Luminescence Cell Viability assay (Promega) or ATPlite Luminescence Assay (Perkin Elmer) for FIG. 1B. Percent viability for each cell lines was calculated based on vehicle control.

[7] = shY/T SN12C cells treated overnight

With `O=C(O)CN(CC(=O)O)c1ccccc1OCCOc1ccccc1N(CC(=O)O)CC(=O)O` [BAPTA] the “pERK levels in shY/T cells with increasing concentrations” value ([1]; shY/T SN12C) was “reduced pERK levels in a dose-dependent manner”.

With `O=C(O)O` [Bicarbonate, NaHCO3] the “pERK levels in Ctrl cells” value ([1]; Ctrl cells) was “raised pERK levels”.

For `COc1ccc2cc(-c3cc(-c4cc(C(F)(F)F)ccc4F)nn3[C@@H](C)c3ccc(C(=O)NCCC(=O)O)cc3)ccc2c1` [GRA-1], the “pERK levels in shY/T cells” value [1, 7] was “none of the GPCR inhibitors reduced ERK phosphorylation”.

In the case of `N[C@@H](CCC(=O)N[C@@H](CS)C(=O)NCC(=O)O)C(=O)O` [GSH, glutathione], the “Glc- and Gln-starvation-induced cell death in Ctrl cells” value ([2]; Ctrl SN12C, −Glc or −Gln, GSH 0.3 mM) is reported as “had no effect”, the “proliferation under nutrient-replete conditions” value [2] is reported as “did not affect the proliferation” and the “Glc- and Gln-starvation-induced cell death in shY/T cells” value ([2]; −Glc or −Gln) is reported as “significantly inhibited”.

With `O=S(=O)(NCCNC/C=C/c1ccc(Br)cc1)c1cccc2cnccc12` [H-89] the “pAKT levels in Ctrl cells” value [3] was “without also blocking pAKT”, the “pERK levels in shY/T cells, combination of PKA inhibitor H-89 and EPAC inhibitor HJC” value ([1]; shY/T SN12C cells treated overnight, FIG. 8E) was “synergizes with EPAC inhibitor HJC in reducing pERK levels” and the “pERK levels in shY/T cells” value [1, 7] was “specifically inhibited ERK phosphorylation”.

`Cl` [HCl] was tested, and the “pERK levels in shY/T cells with increasing concentrations” value ([1]; shY/T SN12C) was “reduced pERK levels in a dose-dependent manner”.

For `CC(Sc1nc2ccccc2[nH]1)C(=O)N/N=C/c1cc(Br)ccc1O` (centres unmarked) [KH7], the “pAKT levels in Ctrl cells” value [3] was “not pAKT”, the “bicarbonate-raised pERK levels in Ctrl cells” value ([1]; Ctrl cells, bicarbonate plus KH7, FIG. 8K) was “blocked by KH7” and the “pERK levels in shY/T cells” value [1, 7] was “drastically inhibited pERK levels”.

For `CNc1ncc2cc(-c3cc(NC(=O)NCCC(C)(C)C)c(F)cc3C)c(C)nc2n1` [LY3009120], the “pAKT levels in Ctrl cells” value [3] was “did not reduce pAKT levels” and the “pERK levels in shY/T cells” value [1, 7] was “inhibited pERK levels”.

For `Cl.c1ccc(C2CCCC2NC2=NCCCCCCCCCCC2)cc1` (centres unmarked) [MDL 12330A], the “ERK phosphorylation, tmAC activator/inhibitor alone or in combination” value ([1]; overnight, FIG. 8K) was “no effect on ERK phosphorylation”.

In the case of `Nc1ncnc2c1ncn2[C@@H]1O[C@@H]2COP(O)(=S)O[C@H]2[C@H]1O` (some centres unmarked) [Rp-cAMP], the “pAKT levels in Ctrl cells” value [3] is reported as “without affecting pAKT” and the “pERK levels in shY/T cells” value [1, 7] is reported as “specifically inhibited ERK phosphorylation”.

For `CN=c1nc(-c2ccccc2)n(-c2ccccc2)s1` [SCH 202676], the “pERK levels in shY/T cells” value [1, 7] was “none of the GPCR inhibitors reduced ERK phosphorylation”.

In the case of `CNC(=O)c1cc(Oc2ccc(NC(=O)Nc3ccc(Cl)c(C(F)(F)F)c3)cc2)ccn1` [Sorafenib], the “pAKT levels in Ctrl cells” value [3] is reported as “did not reduce pAKT levels” and the “pERK levels in shY/T cells” value [1, 7] is reported as “inhibited pERK levels”.

With `CC(C)NCC(O)c1ccc(NS(C)(=O)=O)cc1` (centres unmarked) [Sotalol] the “pERK levels in shY/T cells” value [1, 7] was “none of the GPCR inhibitors reduced ERK phosphorylation”.

In the case of `CO/C1=C\C(C)=C\[C@@H](C)[C@@H](O)[C@@H](C)C/C(C)=C/C=C/[C@H](OC)[C@@H]([C@@H](C)[C@@H](O)[C@H](C)[C@@]2(O)C[C@@H](O)[C@H](C)[C@@H](C(C)C)O2)OC1=O` [bafilomycin], the “bafilomycin-mediated ERK inhibition with exogenous HCO3−” value ([1]; shY/T SN12C, 3 h, 0.3 μM Baf and/or 25 mM NaHCO3) is reported as “rescued by the addition of exogenous HCO3^−”, the “pERK levels in shY/T cells with increasing concentrations” value ([1]; shY/T SN12C) is reported as “inhibited ERK phosphorylation in a dose-dependent manner” and the intracellular calcium concentration (shY/T SN12C cells [4]) is reported as “significantly reduced pH and calcium levels”. The “media pH” value (shY/T SN12C cells [5]) was “significantly reduced pH” and the “sensitivity of NF2-mutant cells to lysosomal inhibition upon YAP/TAZ depletion” value [6] was “increased the sensitivity of NF2-mutant cells to lysosomal inhibition, especially under nutrient-deprived conditions”.

With `[Ca+2].[Cl-].[Cl-]` [calcium, CaCl2] the “pERK levels in Ctrl cells” value ([1]; Ctrl cells) was “increased pERK levels”.

In the case of `CCN(CC)CCCC(C)Nc1ccnc2cc(Cl)ccc12` (centres unmarked) [chloroquine], the “sensitivity of NF2-mutant cells to lysosomal inhibition upon YAP/TAZ depletion” value [6] is reported as “increased the sensitivity of NF2-mutant cells to lysosomal inhibition, especially under nutrient-deprived conditions”.

“EGF: epidermal growth factor (NSDSECPLSHDGYCLHDGVCMYIEALDKYACNCVVGYIGERCQYRDLKWWELR; Epidermal growth factor; UniProt P01133 971-1023, looked up)” was tested, and the “proliferation under nutrient-replete conditions” value [2] was “allowed shY/T cells to regain the ability to proliferate”, the “Glc- and Gln-starvation-induced cell death in shY/T cells” value ([2]; −Glc or −Gln) was “did not prevent cell death” and the “AKT phosphorylation in shY/T cells” value ([3]; shY/T SN12C cells after addition of EGF) was “partially rescued AKT phosphorylation”.

From patent publication US20220233535A1, “USE OF INHIBITORS OF YAP/TAZ FOR THE TREATMENT OF CANCER” (Georgetown University, priority 2019, published 2022)
